Measurements taken from the supplement of paper PMC10307832.

Legend:
Experiment in all cases: relative viability (nuclei count vs DMSO), 5 days (fraction); higher = more cells survive
[1] = compound: O[C@@H](COc1cccc2ncccc12)CN1CCN([C@@H]2c3ccccc3[C@@H]3[C@H](c4ccccc42)C3(F)F)CC1 [Zosuquidar] + CCNC(=O)c1noc(-c2cc(C(C)C)c(O)cc2O)c1-c1ccc(CN2CCOCC2)cc1 [Luminespib] (partner 0.01 µM)
How it was run: (§1)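 For relative viability, nuclei counts in treated wells were divided by those in vehicle wells. Lung cancer cell lines had been pin-tool dosed in 1536-well plates the day after seeding and cultured for 5 days, then fixed and stained in one step (final 0.05% Triton X-100, 1% formaldehyde, 1 ug/ml Hoechst) and imaged at 4×. Doses were one drug alone or a fixed anchor-drug dose plus five library-drug doses (not always all listed) in √10 steps, and values are duplicate-plate medians.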

[2] = compound: COc1cc2nccc(Oc3ccc(NC(=O)C4(C(=O)Nc5ccc(F)cc5)CC4)cc3)c2cc1OC [Cabozantinib] + CS(=O)(=O)N1CCN(Cc2cc3nc(-c4cccc5[nH]ncc45)nc(N4CCOCC4)c3s2)CC1 [Pictilisib] (partner 1 µM)
How it was run: as §1

[3] = compound: O[C@@H](COc1cccc2ncccc12)CN1CCN([C@@H]2c3ccccc3[C@@H]3[C@H](c4ccccc42)C3(F)F)CC1 [Zosuquidar] + CS(=O)(=O)CCNCc1ccc(-c2ccc3ncnc(Nc4ccc(OCc5cccc(F)c5)c(Cl)c4)c3c2)o1 [Lapatinib] (partner 2 µM)
How it was run: as §1

[4] = compound: C1=CC(=CC=C1NC(=S)NNC2=C(C=C(C=C2[N+](=O)[O-])C(F)(F)F)[N+](=O)[O-])F [Kobe2602] + Cc1nc(Nc2ncc(C(=O)Nc3c(C)cccc3Cl)s2)cc(N2CCN(CCO)CC2)n1 [Dasatinib] (partner 0.075 µM)
How it was run: as §1

Cell Line	relative viability ([1]; first compound 0.01 µM)	relative viability ([1]; first compound 0.03162 µM)	relative viability ([1]; first compound 0.1 µM)	relative viability ([1]; first compound 0.3162 µM)	relative viability ([1]; first compound 1 µM)	relative viability ([2]; first compound 0.02 µM)	relative viability ([2]; first compound 0.06325 µM)	relative viability ([2]; first compound 0.2 µM)	relative viability ([2]; first compound 0.6325 µM)	relative viability ([2]; first compound 2 µM)	relative viability ([3]; first compound 0.01 µM)	relative viability ([3]; first compound 0.03162 µM)	relative viability ([3]; first compound 0.1 µM)	relative viability ([3]; first compound 0.3162 µM)	relative viability ([3]; first compound 1 µM)	relative viability ([4]; first compound 0.2 µM)	relative viability ([4]; first compound 0.6325 µM)	relative viability ([4]; first compound 2 µM)	relative viability ([4]; first compound 6.325 µM)	relative viability ([4]; first compound 20 µM)
EMC-BAC-2	1.19	1.19	1.05	1.29	1.11	0.505	0.566	0.516	0.554	0.542	0.852	0.925	0.816	0.986	0.954	0.33	0.322	0.338	0.367	0.376
NCI-H1437	1.1	1.14	1.05	1.13	1.11	0.382	0.474	0.486	0.471	0.429	0.825	0.669	0.747	0.908	0.792	0.498	0.431	0.351	0.459	0.615
NCI-H2405	0.671	0.687	0.589	0.654	0.824	–	0.496	0.602	0.422	0.439	1.17	0.971	1.15	1.24	1.11	0.24	0.211	0.215	0.228	0.228
NCI-H1666	0.966	0.978	0.945	1.01	1.08	0.404	0.4	0.396	0.503	0.439	0.534	0.713	0.875	0.754	0.579	0.833	0.825	0.777	0.899	0.735
NCI-H1993	0.874	0.78	1.55	0.778	0.75	0.842	0.804	0.987	0.811	0.878	0.965	0.908	0.751	1.04	0.79	0.575	0.501	0.544	0.532	0.607
COR-L23	0.619	0.631	0.747	0.777	0.776	0.487	0.831	0.789	0.74	0.691	0.953	0.934	0.968	1.15	1.34	0.507	0.561	0.482	0.55	0.555
LU99A	0.201	0.22	0.256	0.276	0.303	0.248	0.335	0.299	0.33	0.346	0.918	0.954	1.11	1.05	0.982	0.427	0.461	0.433	0.525	0.615
NCI-H596	1.1	–	0.804	0.983	0.931	0.389	0.408	0.388	0.27	0.374	1.11	1.07	1.08	1.13	1.13	0.57	0.678	0.57	0.661	0.644
NCI-H727	0.23	0.344	0.434	0.427	0.431	0.228	0.493	0.302	0.357	0.36	0.846	0.795	0.748	1.02	0.94	0.376	0.384	0.342	0.484	0.392
NCI-H1975	0.264	0.174	0.217	0.213	0.182	0.28	0.322	0.297	0.303	0.337	0.796	0.7	0.945	0.991	0.858	0.31	0.371	0.334	0.302	0.23
NCI-H1355	0.741	0.752	0.644	0.822	0.824	0.49	0.442	0.453	0.432	0.526	0.993	1	0.759	1.11	1	0.647	0.737	0.683	0.664	0.627
NCI-H1755	0.335	0.729	0.564	0.358	0.471	0.445	0.534	0.383	0.358	0.309	1	0.946	0.951	1.04	1.08	0.408	0.407	0.359	0.408	0.437
NCI-H2009	1	1.07	0.986	1.02	0.989	0.979	0.882	0.882	0.754	0.959	0.931	0.905	0.891	1.09	0.849	0.282	0.368	0.332	0.336	0.312
NCI-H1395	0.685	0.656	0.618	0.349	0.818	0.657	0.644	0.609	0.675	0.689	1.03	0.903	0.957	1.54	1.04	0.468	0.456	0.452	0.442	0.442
NCI-H322M	0.754	0.886	0.664	0.862	0.727	0.443	0.548	–	0.572	0.526	0.552	0.63	0.417	0.582	0.567	0.254	0.25	0.245	0.241	0.297
HOP-62	0.878	0.947	0.914	0.99	0.896	0.959	0.707	1.08	0.57	0.683	0.862	1.05	0.951	1.07	1.07	0.646	0.69	0.593	0.689	0.721
